Source: publication PMC10515483, “Structure–Reactivity Studies of 2-Sulfonylpyrimidines Allow Selective Protein Arylation” (Bioconjugate Chemistry, 2023)

Experiments:
[1] = GSH arylation rate constants (NMR; UV-vis for fast warheads); format: physicochemical; conditions: for rate constant (k) for the reaction with GSH: measured by UV titrations
Excerpt: We employed nuclear magnetic resonance (NMR) and UV–vis to quantify the reactivity of our 2-SP derivatives and other representative electrophiles (Figure 2) against cysteine. NMR allowed straightforward determination of reaction rate constants through dual monitoring of the consumption of the warhead and formation of the product by integration of their respective NMR signals (Figures S1–S3). It simultaneously provided a direct readout on reaction specificity and hydrolytic stability of the warhead. All measurements were carried out in KPi buffer in the presence of 5% d^6-dmso, which is generally well-tolerated by a wide range of proteins in in vitro studies. N-acetylcysteine methylester (NACME) and L-glutathione (GSH) are useful model cysteine nucleophiles for in vitro studies of electrophilic agents.[32] Mixing reference electrophile 2-methylsulfonylpyrimidine (4q) with NACME or GSH in a 1:10 ratio (pseudo-first-order conditions) allowed extraction of accurate and reproducible second order rate constants (k).
Figure 3 In vitro determination of electrophilic reactivity of compounds. (A) NMR assay setup for warhead/GSH reaction rate constant determination and chemoselectivity monitoring, over a 6 h time scale. Purple bead = GSH. Hydrolytic stability was determined in the same way over 36 h. d^4-Trimethylsilylpropanoate (TMSP, blue box) was used as an internal standard for monitoring the warhead solubility. Second-order reaction rate constants (k) were obtained from their pseudo-first-order counterparts (k′), by time-dependent normalized integration of the disappearing warhead signals. […] (B) Experimental second-order rate constants (y axis, log10 scale) for the reaction of representative 2-SP derivatives (left, 11 out of ca. 40 examples) and previously reported heteroarylsulfones (right) with GSH in a KPi buffer, pH 7.0, 20 °C. All rate constants were calculated as an average of at least two independent measurements. Numerical values and standard deviations at both pH 7.0 and 6.5, along with a full list of 2-SPs and other electrophile types tested, are presented in Tables S2–S6 and Figure S4. The horizontal dashed line marks the reaction rate of 2-methylsulfonylpyrimidine at pH 7.0, as a reference when comparing with other reagents (see main text).
To establish an accurate structure–reactivity profile of 2-SP reagents, we systematically determined their reaction rate constants for the arylation of GSH by NMR, at pH 7.0 and 6.5. This was a prerequisite to (i) quantify the influence of substitution on reaction rates; (ii) accurately assess the tunability and chemoselectivity of 2-SPs for cysteine arylation; (iii) determine the influence of pH on the reaction rates to further inform on the precise reaction mechanism; and (iv) benchmark the overall performance of 2-SPs with those of previously reported fast reacting heteroarylsulfones and other common cysteine reactive warheads (Figure 2C,D).

[2] = pH 7
Method: Stability and solubility assays
transferred to the NMR instrument for acquisition. 1H spectra (16 scans) were recorded every 10 minutes under water suppression conditions. Following acquisition, spectra were analysed using
TopSpin. Normalised integrations of the pyrimidine aromatic 1H signals in the starting material and
product were plotted as a function of time (s), using the TMSP peak as standard for integral
calibration/normalisation and monitoring of compound solubility, allowing extraction of pseudo first
order reaction rate constants (k’). Second order rate constants (k) were back calculated from the ratio
of the pseudo first counterparts and the concentration of thiol in solution.
was confirmed by formation of a single S-arylated product (characteristic 2-alkylthioether signals),
concomitant with formation of the sulfinic acid by -product (leaving group). Hydrolytic stability
assessment was performed at pH 7.0 and pH 8.2 in a similar manner, in the absence of thiol.
Chemoselectivity. Similarly, but replacing GSH by other amino acids , reference 2-
methylsulfonylpyrimidine 4q in 50 mM KPi (pH 8.2) was incubated with 10 equivalents of either Boc-
Lys-OH, L-ser-OMe, N-Ac-Tyr-OH or Proline were used.

2-methylsulfonyl-1,3,4-oxadiazole 5-phenyl [compound 8, reference compound]
rate constant (k) for the reaction with GSH ([1]; pH 6.5): 35 ± 2 M⁻¹ s⁻¹ | second order rate constant k with GSH ([1]; pH 7.0, KPi buffer): ≈ 160 M^–1 s^–1 | rate constant (k) for the reaction with GSH ([1]; pH 7.0): 160 ± 9.2 M⁻¹ s⁻¹ | k change (vs ref) ([1]; pH 7.0, ratio to rate constant of 4q, acceleration (+) or deceleration (-)): +6,400 fold | Solubility upon mixing (t0) [2]: 100 µM
